“Also recorded” adds a separate entry of the source. Marks after values point to notes of the source that are not given here.
How the values were obtained:
[1] = tested on: tetradecanoyl phorbol acetate (TPA) induced ear inflammation; assay: TPA induced ear inflammation test in the mouse, Compound 122 compared to its components (Example 241); format: in vivo; conditions: for Inhibition of ear swelling (%): versus vehicle group A, 3 h after TPA; for inhibition of ear swelling, result in words: Compound 122 7.0 mg, niacinamide 3.67 mg, N-acetylglucosamine 3.33 mg per application
Source text: (§1) The objective of this study is to assess the effect of Compound 122 as compared to its components in the tetradecanoyl phorbol acetate (TPA) induced ear inflammation test in the mouse, a commonly employed method for screening and evaluation of antiinflammatory drugs. Locoid® cutaneous solution (0.1% hydrocortisone 17-butyrate) is used as a positive control.
The test articles are the complex of the invention prepared according to example 118 (Compound 122 in the following) and its components niacinamide and N-acetylglucosamine, all obtained from Astion A/S, Denmark.
The study is performed in female SPF NMRI mice of the stock Bom:NMRI from M & B A/S, Denmark. At start of the acclimatisation period the mice is in the weight range of 18-20 g. An acclimatisation period of 7 days is allowed.
On day 0 the test substances are applied in 20 μl volumes to the inner surface of the right ear 20 minutes before and again 20 minutes after TPA treatment. All groups are treated with 20 μl acetone on the left ear and with 20 μl TPA, 400 μg/ml, on the right ear.
Three hours after the TPA application the mice are sacrificed, the ears cut off and weighed.
The amount of niacinamide and N-acetylglucosamine administered to groups C and D corresponds exactly to the amount of the two substances present in Compound 122 administered to group B.
(§2) Mean weights and standard deviations are calculated. Percent inhibition of the oedema compared with group A is calculated for the groups B-E. Weights of the left ears are used to assess the comparability of the groups and to calculate differences in weight between left and right ear.
Ear swelling is determined as the difference between the weight of right and left ear. The following inhibition of ear swelling is observed in groups B-E: […]

[2] = tested on: tetradecanoyl phorbol acetate (TPA) induced ear inflammation; assay: TPA induced ear inflammation test in the mouse, two doses of two complexes (Example 239); format: in vivo; conditions: Locoid solution 0.1%, 0.02 mg per application; positive control; ears weighed 3 h after TPA
Source text: as §1, with “two doses of two chemical complexes of the invention topically administered” for “Compound 122 as compared to its components”
At start of the acclimatisation period the mice is in the weight range of 18-20 g. An acclimatisation period of 7 days is allowed.
On the day of arrival the animals is randomly allocated to 7 groups, each of 9 mice.
The test substances are applied in 20 μl volumes to the inner surface of the right ear on day 0. 20 minutes before and again 20 minutes after TPA treatment. All groups is treated with 20 μl acetone on the left ear and with 20 μl TPA, 400 μg/ml, on the right ear.
as §2, with “Three hours after the TPA application the mice are sacrificed, the ears cut off and weighed. Mean” for “Mean”, “group 1” for “group A”, “groups 2-7.” for “groups B-E.”, “ears is” for “ears are”

CCCC(=O)O[C@]1(C(=O)CO)CC[C@H]2[C@@H]3CCC4=CC(=O)CC[C@]4(C)[C@H]3[C@@H](O)C[C@@]21C [Hydrocortisone 17-butyrate, hydrocortisone 17-butyrate]
Inhibition of ear swelling (%) ([1]; 0.02 mg per application, group E, positive control): 89*** %
inhibition of ear swelling [2]: 90%

CC(=O)N[C@H]1C(O)O[C@H](CO)[C@@H](O)[C@@H]1O (stereo partly drawn) [N-acetylglucosamine]
Inhibition of ear swelling (%) ([1]; 3.33 mg per application, group D): 31* %
inhibition of ear swelling, result in words [1]: only displayed a modest inhibition; also recorded: showed much lesser inhibition of ear swelling

NC(=O)c1cccnc1 [Niacinamide]
Inhibition of ear swelling (%) ([1]; 3.67 mg per application, group C): 31** %
inhibition of ear swelling, result in words [1]: only displayed a modest inhibition; also recorded: showed much lesser inhibition of ear swelling

Reference: patent US20030105034A1, “Pyridine carboxy derivatives and an aminosugar” (Astion Deveopment A/S, priority 2001, published 2003)
